Experimental data published in patent publication US20120028995A1, “NOVEL COMPOUNDS FOR MEDICAL USE AS PEPTIDASE EFFECTORS” (IMTM GMBH, priority 2010, published 2012).

How the values were obtained:
[1] = target: T1, cytosolic aminopeptidase (cAAP) purified from Jurkat cells (Homo sapiens, UniProt P55786); assay: Inhibition of enzymatic activity of cytosolic aminopeptidase (cAAP); assay type: biochemical; details: highest test item concentration 25 μM; for IC50: read-out: meas. IC50 (cAAP)
T1 construct: The cytosolic aminopeptidase (cAAP) was purified from Jurkat cells; endogenous in cells; host or cells: Jurkat cells (enzyme purified from them)

[2] = test system: purified, recombinant DP8 and DP9; assay: Inhibition of enzymatic activity of DP8/9; assay type: biochemical; details: highest test item concentration 25 μM; for IC50: read-out: meas. IC50 (DP8/9)
Protocol: (§1) The inhibition of the enzymatic activity of DPIV and related enzymes was measured by using purified, recombinant human DPIV (purified from transfected Sf9 cells, final enzyme concentration approx. 1 nM) as well as purified, recombinant DP8 and DP9 (purchased from Biomol). The assay was performed in 0.05M TRIS/HCl puffer pH 7.5, supplemented with 0.05% Triton (v/v), 0.05% BSA (w/v), 2 mM MgCl2.
(§2) The enzymatic activity of DPIV was assessed by the hydrolysis of the fluorogenic substrates H-Gly-Pro-4-amino-7-methyl coumarine (abbreviation of fluorogenic group AMC; purchased from Bachem) or (Ala-Pro)2-Rhodamine 110 (abbreviation R110). The final substrate concentrations were 50 μM or 1 μM, respectively.
(§3) The assay was performed in white microtitre plates for fluorescence measurements. The test items, substrate and enzyme were diluted in assay buffer. The highest test item concentration used was 25 μM. For the calculation of IC50 values, at least 16 log 2-dilutions of each test item were analyzed. As controls, the DPIV activity in the absence of test items as well as the spontaneous hydrolysis of the substrate was determined.
(§4) The release of the fluorescent hydrolysis product AMC was measured at an excitation wavelength of 380 nm and an emission wavelength of 460 nm by using a microtitre fluorescence reader immediately after substrate addition as well as after 30, 60 and 120 min. The hydrolysis of the substrate (Ala-Pro)2-Rhodamine 110 was determined at an exitation wavelength of 488 nm and emission wavelength of 530 nm.

T lymphocytes (T cells) = assay: Suppression of DNA synthesis of PHA-stimulated T lymphocytes; assay type: cell-based; details: Homo sapiens, T-cell, 48 h, tritium thymidine incorporation, read-out: Supp. DNA Synt. T-cell IC50
Protocol: Peripheral blood mononuclear cells (PBMC) from healthy human volunteers were freshly isolated by density gradient centrifugation. T lymphocytes (T cells) were isolated from PBMC fractions via nylon wool adherence. Both cell populations were cultured in serum free lymphocyte medium (AIMV medium, Invitrogen) and stimulated by addition of 1 μg/ml Phytohemagglutinine for 48 hours in 96 well flat-bottom microtiter plates. Test compounds were added at concentration ranges from 0.1 up to 250 μM over the total assay period.
DNA synthesis of proliferating PBMC was assessed by incorporation of nucleotide analogue bromdesoxyuridine (BrdU) and subsequent detection of BrdU by ELISA technique (Cell Proliferation Biotrak™ ELISA system, GE Health Care) according to the protocol of the manufacturer. DNA synthesis of proliferating T cells was determined by incorporation of radio labelled tritium thymidine and subsequent radio detection.
Data output was based on raw data and calculation of relative proliferation response in relation to PHA-activated T cells in the absence of test compound (100% control). The IC50 value of proliferation suppression was assessed by graphical evaluation.

[3] = target: T2, aminopeptidase N (APN), purified recombinant human enzyme (Homo sapiens, UniProt P15144); assay: Inhibition of enzymatic activity of aminopeptidase N (fluorogenic substrate hydrolysis); assay type: biochemical; details: highest test item concentration 25 μM; for IC50: read-out: meas. IC50 (APN)
T2 construct: made in house; host or cells: ECV cells (transfected)
Protocol: The inhibition of the enzymatic activity of aminopeptidase N (APN) was measured by using purified, recombinant human enzyme (purified from transfected ECV cells, final enzyme concentration approx. 1 nM). […] The assay was performed in 0.05M TRIS/HCl puffer pH 7.5, supplemented with 0.05% Triton (v/v), 0.05% BSA (w/v), 2 mM MgCl2.
The aminopeptidase acitivities wer assessed by the hydrolysis of the fluorogenic substrates H-Ala-4-amino-7-methyl coumarine (abbreviation of fluorogenic group AMC; purchased from Bachem) or (Ala-)2-Rhodamine 110 (abbreviation R110). The final substrate concentrations were again 50 and 1 μM, respectively.
as §3
The release of the fluorescent hydrolysis products AMC and R110 was measured as described above for DPIV substrates.

[4] = target: T3, purified, recombinant human DPIV (Homo sapiens, UniProt P27487); assay: Inhibition of enzymatic activity of DPIV (fluorogenic substrate hydrolysis); assay type: biochemical; details: highest test item concentration 25 μM; for IC50: read-out: meas. IC50 (DPIV)
T3 construct: made in house; host or cells: Sf9 insect cells
Protocol: as §1, §2, §3, §4

SZ95 cells = assay: Inhibition of DNA synthesis and proliferation of immortalized human sebocytes SZ95; assay type: cell-based; details: Homo sapiens, EGF-stimulated SZ95 sebocytes, tritium thymidine incorporation; read-out: Supp. DNA Synt. SZ95 IC50
Protocol: The immortalized human sebocyte line SZ95 was provided by Prof. C Zouboulis [C C Zouboulis, H Seltmann, H Neitzel, C E Orfanos, Establishment and characterization of an immortalized human sebaceous gland cell line (SZ95). J. Invest. Dermatol. 113(6):1011-1020 (1999), the entire disclosure of which is incorporated by reference herein]. These adherent growing cells were cultured in serum-free Sebomed Complete (Biochrom). Recombinant EGF was added in order to stimulate DNA synthesis and proliferation of the SZ95 cells. Test items were added in concentrations from 0.1 up to 100 μM.
The DNA synthesis of proliferating cells was detected by incorporation of radiolabelled tritium thymidine (3HT) and counting at a beta counter. Based on these raw data the relative proliferation response in relation to cells cultured in the absence of test compound (100% control) was calculated. IC50 values of proliferation suppression were assessed by computer-assisted graphical evaluation.

NHEK cells = assay: Inhibition of DNA synthesis and proliferation of normal human epidermal keratinocytes (NHEK); assay type: cell-based; details: Homo sapiens, NHEK, 48 h, EGF-stimulated NHEK, BrdU incorporation, read-out: Supp. DNA Synt. NHEK IC50
Protocol: NHEK cells (primary cells from person) were purchased from PromoCell. For these assay the adherent cells were cultured in serum-free Keratinocyte Growth medium 2 supplemented with epidermal growth factor (EGF) and bovine pituitary extract for 48 hours in flat-bottom microtiter plates. EGF stimulates the DNA synthesis and proliferation of these cells. Test items were added in concentrations from 0.1 up to 100 μM.
The DNA synthesis was assessed by incorporation of bromdesoxyuridine (BrdU) and subsequent detection of BrdU by ELISA technique. Based on these raw data the relative proliferation response in relation to cells cultured in the absence of test compound (100% control) was calculated. IC50 values of proliferation suppression were assessed by computer-assisted graphical evaluation.

T2 sequence (P15144 whole entry): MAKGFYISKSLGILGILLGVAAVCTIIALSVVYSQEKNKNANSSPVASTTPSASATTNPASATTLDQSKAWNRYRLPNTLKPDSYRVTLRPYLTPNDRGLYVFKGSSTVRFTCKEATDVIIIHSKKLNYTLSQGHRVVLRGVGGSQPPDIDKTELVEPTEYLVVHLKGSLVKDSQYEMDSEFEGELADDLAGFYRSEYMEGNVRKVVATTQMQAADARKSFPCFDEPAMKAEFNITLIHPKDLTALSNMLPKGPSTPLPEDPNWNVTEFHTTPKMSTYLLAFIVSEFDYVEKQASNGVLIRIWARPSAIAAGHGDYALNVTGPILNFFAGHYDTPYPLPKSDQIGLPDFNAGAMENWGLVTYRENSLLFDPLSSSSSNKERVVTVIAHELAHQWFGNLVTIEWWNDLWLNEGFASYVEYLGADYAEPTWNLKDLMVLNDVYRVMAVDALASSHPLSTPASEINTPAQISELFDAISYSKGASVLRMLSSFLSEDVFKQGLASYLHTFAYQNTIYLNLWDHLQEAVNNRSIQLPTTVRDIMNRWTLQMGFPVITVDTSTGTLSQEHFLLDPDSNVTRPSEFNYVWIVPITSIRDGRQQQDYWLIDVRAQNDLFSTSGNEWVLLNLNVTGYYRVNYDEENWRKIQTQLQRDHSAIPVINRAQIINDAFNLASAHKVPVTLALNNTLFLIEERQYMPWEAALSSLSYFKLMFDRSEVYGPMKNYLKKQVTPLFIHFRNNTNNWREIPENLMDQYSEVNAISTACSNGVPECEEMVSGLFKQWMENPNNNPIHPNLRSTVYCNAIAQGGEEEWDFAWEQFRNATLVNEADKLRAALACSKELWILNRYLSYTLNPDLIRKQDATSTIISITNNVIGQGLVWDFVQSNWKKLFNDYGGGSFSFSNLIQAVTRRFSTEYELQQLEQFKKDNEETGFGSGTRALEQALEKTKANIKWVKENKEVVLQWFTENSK
T1 sequence (P55786 whole entry): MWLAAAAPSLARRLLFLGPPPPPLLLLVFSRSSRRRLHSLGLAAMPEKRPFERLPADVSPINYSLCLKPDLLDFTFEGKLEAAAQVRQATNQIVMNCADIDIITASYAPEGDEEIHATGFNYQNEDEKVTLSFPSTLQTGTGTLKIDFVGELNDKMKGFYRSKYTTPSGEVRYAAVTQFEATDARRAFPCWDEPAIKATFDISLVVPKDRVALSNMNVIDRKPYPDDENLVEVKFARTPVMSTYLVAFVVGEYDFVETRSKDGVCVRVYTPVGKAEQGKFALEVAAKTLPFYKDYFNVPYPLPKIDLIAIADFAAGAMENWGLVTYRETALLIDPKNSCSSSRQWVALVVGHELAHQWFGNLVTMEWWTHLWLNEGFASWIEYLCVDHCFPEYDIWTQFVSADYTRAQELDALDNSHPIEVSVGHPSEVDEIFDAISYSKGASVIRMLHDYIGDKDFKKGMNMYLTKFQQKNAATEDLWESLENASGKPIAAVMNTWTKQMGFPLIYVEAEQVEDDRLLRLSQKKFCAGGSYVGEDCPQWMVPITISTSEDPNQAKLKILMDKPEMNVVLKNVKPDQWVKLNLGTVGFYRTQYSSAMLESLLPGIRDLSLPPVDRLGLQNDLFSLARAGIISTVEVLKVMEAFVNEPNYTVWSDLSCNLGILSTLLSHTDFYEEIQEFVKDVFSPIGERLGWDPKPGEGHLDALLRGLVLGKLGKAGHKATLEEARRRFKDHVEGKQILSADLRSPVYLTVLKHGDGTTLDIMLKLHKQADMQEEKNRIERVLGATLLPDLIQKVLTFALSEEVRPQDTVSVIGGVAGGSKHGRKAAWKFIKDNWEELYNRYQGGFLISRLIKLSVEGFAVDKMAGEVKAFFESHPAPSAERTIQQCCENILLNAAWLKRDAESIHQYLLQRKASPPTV
T3 sequence (P27487 whole entry): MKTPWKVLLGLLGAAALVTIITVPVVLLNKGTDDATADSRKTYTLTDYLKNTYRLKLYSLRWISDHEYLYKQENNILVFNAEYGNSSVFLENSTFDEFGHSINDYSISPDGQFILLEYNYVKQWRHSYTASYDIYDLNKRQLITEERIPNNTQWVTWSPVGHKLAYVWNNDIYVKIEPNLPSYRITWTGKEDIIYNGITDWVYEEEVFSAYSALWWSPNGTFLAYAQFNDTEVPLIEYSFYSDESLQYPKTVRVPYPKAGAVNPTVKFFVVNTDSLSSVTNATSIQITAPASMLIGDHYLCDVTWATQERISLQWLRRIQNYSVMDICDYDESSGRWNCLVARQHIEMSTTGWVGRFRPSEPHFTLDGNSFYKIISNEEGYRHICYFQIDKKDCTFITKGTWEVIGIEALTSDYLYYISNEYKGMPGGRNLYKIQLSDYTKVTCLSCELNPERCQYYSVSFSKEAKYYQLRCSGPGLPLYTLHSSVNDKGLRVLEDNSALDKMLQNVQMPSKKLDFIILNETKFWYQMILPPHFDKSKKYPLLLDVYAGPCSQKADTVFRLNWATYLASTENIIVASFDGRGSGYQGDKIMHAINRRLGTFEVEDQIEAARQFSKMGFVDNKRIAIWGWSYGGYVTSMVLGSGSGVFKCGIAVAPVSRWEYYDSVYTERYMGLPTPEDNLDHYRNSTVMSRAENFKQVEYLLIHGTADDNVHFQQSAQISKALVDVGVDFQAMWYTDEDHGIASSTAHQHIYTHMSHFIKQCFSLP

SMILES	IC50 [1] [µM]	IC50 [2] [µM]	IC50 (T lymphocytes (T cells)) [µM]	IC50 [3] [µM]	IC50 [4] [µM]	IC50 (SZ95 cells) [µM]	meas. IC50 (cAAP) [1]	IC50 (NHEK cells) [µM]	meas. IC50 (DP8/9) [2]	meas. IC50 (APN) [3]	meas. IC50 (DPIV) [4]
CC(C)(CNC(=O)CC(N)Cc1cc(F)ccc1F)CNC(=O)C(O)C(N)Cn1cnc2cncnc21 (stereo not shown) [Compound C18.001]	1	16	29.8	0.91	0.247	≥ 156					
CC(C)(CNC(=O)CC(N)Cc1cc(F)ccc1F)CNC(=O)C(O)C(N)COCc1ccccc1 (stereo not shown) [Compound C19.001]		1.25									
CC(C)(CNC(=O)CC(N)Cc1cc(F)ccc1F)CNC(=O)C(O)C(N)CO (stereo not shown) [Compound C19.003]	0.37	3.8	81.2	0.92	0.33	81.4					
CC(C)(CNC(=O)CC(N)Cc1cc(F)ccc1F)CNC(=O)C(O)C(N)COCc1ccccc1 (stereo not shown) [Compound C19.020]		1.2									
CC(C)(CNC(=O)CC(N)Cc1cc(F)ccc1F)CNC(=O)C(O)C(N)COCc1ccccc1 (stereo not shown) [Compound C19.022]		1.2									
CC(C)(C)OC(=O)NC(CCCCNS(=O)(=O)c1cccc(NC(=O)C(O)C(Cc2ccccc2)NC(=O)OC(C)(C)C)c1)C(=O)N1CCSC1 (stereo not shown) [Compound C21.005]			11.4				no in- hibition	15.3	no in- hibition	no in- hibition	no in- hibition
NC(CCCCNS(=O)(=O)c1cccc(NC(=O)C(O)C(N)Cc2ccccc2)c1)C(=O)N1CCSC1 (stereo not shown) [Compound C21.006]	0.12	0.11	157	0.89	0.05			66.2			
NC(CNS(=O)(=O)CCCNC(=O)C(O)C(N)Cc1ccccc1)Cc1cc(F)ccc1F (stereo not shown) [Compound C26.001]	0.09	7.37	200	0.07	0.58			≥ 135			
CC(C)(C)OC(=O)NC(CNS(=O)(=O)CCCNC(=O)C(O)C(Cc1ccccc1)NC(=O)OC(C)(C)C)Cc1cc(F)ccc1F (stereo not shown) [Compound C26.002]			200		6.52		no in- hibition	18.1	no in- hibition	no in- hibition	
CC(=O)NC(Cc1ccccc1)C(O)C(=O)NCCCS(=O)(=O)NCC(N)Cc1cc(F)ccc1F (stereo not shown) [Compound C26.003]	0.25		70	0.19	0.36			≥ 167	no in- hibition		
CC(=O)NC(Cc1ccccc1)C(O)C(=O)NCCCS(=O)(=O)NCC(Cc1cc(F)ccc1F)NC(=O)OC(C)(C)C (stereo not shown) [Compound C26.004]			70				no in- hibition	≥ 106	no in- hibition	no in- hibition	no in- hibition
NC(CNC(=O)CCCNC(=O)C(O)C(N)Cc1ccccc1)Cc1cc(F)ccc1F (stereo not shown) [Compound C26.005]	0.13		27.3	0.09				28.9			no in- hibition
CCOC(=O)C(O[Si](C)(C)C(C)(C)C)C(Cc1ccc(-c2cccnc2)cc1)NC(=O)OCc1ccccc1 (stereo not shown) [Compound C26.006]			3.8			7.9	no in- hibition	1.9		no in- hibition	no in- hibition
NC(Cc1cc(F)ccc1F)CS(=O)(=O)NCCCCNC(=O)C(O)C(N)Cc1ccccc1 (stereo not shown) [Compound C26.007]			3.5			7.3				no in- hibition	no in- hibition
NC(CNC(=O)CCCNC(=O)C(O)C(N)Cc1ccccc1)Cc1cc(F)ccc1F (stereo not shown) [Compound C26.008]				0.01	0.9						
CC(C)(C)OC(=O)NC(CNC(=O)CCCNC(=O)C(O)C(Cc1ccccc1)NC(=O)OC(C)(C)C)Cc1cc(F)ccc1F (stereo not shown) [Compound C26.009]										no in- hibition	no in- hibition
CC(C)(C)OC(=O)NC(CNC(=O)c1cccc(NC(=O)C(O)C(N)Cc2ccc(-c3cccnc3)cc2)c1)Cc1cc(F)ccc1F (stereo not shown) [Compound C-125]	0.005		12.9	0.094		13.7		4.4			no in- hibition
